Data as given in patent publication US7531576B2, “Biphenyl derivatives” (Pola Chemical Industries, Inc., priority 2000, dated 2009).

Target: ACAT
Test: Evaluation of ACAT inhibitory activity (rat liver enzyme preparation, [14C]-oleoyl CoA substrate)
Type: biochemical
Settings: ACAT from liver of rats on high-cholesterol feed; 30° C.; pIC50 from concentration-response curve by the nonlinear least square method
Procedure: IR (cm^−1) (KBr): • 1517, 1521, 2962. Test (Evaluation of ACAT Inhibitory Activity) (1) Preparation of the Enzyme (ACAT)
(1-1) Each rat was reared for about 3 weeks on high-cholesterol feed (solid feed prepared by adding 1% of cholesterol, 0.3% of sodium cholate, 0.1% of propylthiouracil and 3% of lard to a conventional feed MF).
(1-2) The liver of the rat reared in (1-1) was collected and shredded. 10 mM HEPES buffer (pH 7.4) which contained 0.25 M of sucrose and 1 mM of EDTA was added in an amount about three times as much as the weight of the liver to suspend the latter. The liver was then homogenized by a glass-Teflon homogenizer.
(1-3) The homogenized liver was centrifuged for 15 minutes under 22000×g, and the supernatant was collected.
(1-4) The supernatant was centrifuged further for 60 minutes under 100000×g. To the precipitates, 10 mM HEPES buffer (pH 7.4) containing 0.25 M of sucrose and 1 mM of EDTA therein was added in about a half of the volume used in (1-2), and the precipitates were suspended again.
(1-5) The suspension was again centrifuged for 60 minutes under 100000×g, and the resulting precipitates were collected. 10 mM HEPES buffer (pH 7.4) containing 0.25 M of sucrose and 2 mM of DTT therein was added to suspend the precipitates. The suspension was stored at −80° C.
(2) Preparation of Reagents
0.75 M Phosphate buffer (pH 7.4), 800 μM BSA and 100 mM DTT were mixed together in amounts of 1.0 mL, 0.5 mL and 0.1 mL, respectively, and ultrapure water (3.4 mL) was added.
A refrigerated sample of the enzyme was diluted with the “reaction buffer” described above to 2.5 mg protein/mL.
10^−3 M Solutions of the compounds to be evaluated were prepared with methanol. 3×10^−4 M Solutions were each prepared by adding 50% methanol (700 μL) to the corresponding 10^−3 M solution (300 μL). 10^−4 M Solutions were each prepared by adding 50% methanol (600 μL) to the corresponding […] solution (300 μL). Up to 10^−7 M solutions (serial 3-fold dilutions), the solutions were prepared by a similar procedure.
(3) Assay Method of ACAT Activity
(3-1) ACAT (20 μL), the reaction buffer (20 μL) and desired one (5 μL) of test samples were placed in a 1.5 mL test tube and incubated at 30° C. for 10 minutes (the resulting solution will hereinafter be called “I”).
(3-2) Reaction substrate [^14C]-oleoyl CoA (5 μL) was added into “I”, and was allowed to react at 30° C. for 4 minutes.
(3-3) Four minutes later, methanol (250 μL) was added to terminate the reaction, and then, a lipid mixture (40 μL), recovery-percentage-correcting [^3H]-cholesteryl oleate (10 μL) and hexane (700 μL) were added into the test tube (this solution will hereinafter be called “II”).
(3-4) “II” was stirred in a mixer, and the hexane layer (500 μL) was collected and transferred into another test tube (this solution will hereinafter be called “III”).
(3-5) “III” was evaporated to dryness, dissolved in chloroform (10 μL), and then spotted on a TLC plate. At that time, cholesteryl oleate was also spotted.
(3-6) After the spots were dried, they were developed with a 85:15:0.5 mixture of hexane, diethyl ether and acetic acid as a developer solvent, and then stained with iodine. A plate section corresponding to the spot of cholesteryl oleate was cut out and placed in a vial. At the same time, the reaction substrate [^14C]-oleoyl CoA (5 μL) and the recovery-percentage-correcting [^3H]-cholesteryl oleate (10 μL) were spotted on the TLC plate, and similarly, plate sections were cut out and placed in vials, respectively.
(3-7) Subsequently, “Aquazole II” (about 10 mL) was added to the vials. After the vials were allowed to stand for a while, they were measured for [^14C] and [^3H] radioactivities.
Using the radioactivities, the % recovery of [^14C]-cholesteryl oleate formed by the enzymatic reaction was calculated from the radioactivity of [^3H], and from the radioactivity of [^14C], the yield of cholesteryl oleate was calculated. […]

| SMILES | PIC50 |
| --- | --- |
| CCCCCN(Cc1ccc(-c2ccccc2-c2nnn[nH]2)cc1)C(=O)Nc1c(F)cc(F)cc1F [Compound of the formula (6), N′-Pentyl-N′-[[2′-(1H-tetrazol-5-yl)-1,1′-biphenyl-4-yl]methyl]-N-(2,4,6-trifluorophenyl)urea] | 5.52 |
| CCCCCCCN(Cc1ccc(-c2ccccc2-c2nnn[nH]2)cc1)C(=O)Nc1c(F)cc(F)cc1F [Compound of the formula (7), N′-Heptyl-N′-[[2′-(1H-tetrazol-5-yl)-1,1′-biphenyl-4-yl]methyl]-N-(2,4,6-trifluorophenyl)urea] | 6.23 |
| CCCCCCCN(Cc1ccc(-c2ccccc2-c2nnn[nH]2)cc1)C(=O)NC1CCCCC1 [Compound of the formula (9), N-Cyclohexyl-N′-heptyl-N′-[[2′-(1H-tetrazol-5-yl)-1,1′-biphenyl-4-yl]methyl]urea] | 5.18 |
| CCCCCN(Cc1ccc(-c2ccccc2NC(=O)C(F)(F)F)cc1)C(=O)Nc1c(F)cc(F)cc1F [Compound of the formula (10), N′-Pentyl-N′-[[2′-[[(trifluoromethyl)carbonyl]-amino]-1,1′-biphenyl-4-yl]methyl]-N-(2,4,6-trifluorophenyl)urea] | 6.57 |
| CCCCCN(Cc1ccc(-c2ccccc2NS(=O)(=O)C(F)(F)F)cc1)C(=O)Nc1c(F)cc(F)cc1F [Compound of the formula (11), N′-Pentyl-N′-[[2′-[[(trifluoromethyl)sulfonyl]-amino]-1,1′-biphenyl-4-yl]methyl]-N-(2,4,6-trifluorophenyl)urea] | 5.71 |
| CCCCCCCN(Cc1ccc(-c2ccccc2S(=O)(=O)NC(=O)Nc2c(C(C)C)cccc2C(C)C)cc1)C(=O)Nc1c(F)cc(F)cc1F [Compound of the formula (12), N′-[[2′-[[[[(2,6-Diisopropylphenyl)amino]-carbonyl]amino]sulfonyl]-1,1′-biphenyl-4-yl]methyl]-N′-heptyl-N-(2,4,6-trifluorophenyl)urea] | 6.40 |

The remaining lines, values ahead:

| PIC50 | SMILES |
| --- | --- |
| 5.72 | CCCCCN(Cc1ccc(-c2ccccc2-c2nnn[nH]2)cc1)C(=O)Nc1c(C(C)C)cccc1C(C)C [Compound of the formula (4), N-(2,6-Diisopropylphenyl)-N′-pentyl-N′-[[2′-(1H-tetrazol-5-yl)-1,1′-biphenyl-4-yl]methyl]urea] |
| 5.65 | CCCCCN(Cc1ccc(-c2ccccc2-c2nnn[nH]2)cc1)C(=O)Nc1c(C)cc(C)cc1C [Compound of the formula (5), N′-Pentyl-N′-[[2′-(1H-tetrazol-5-yl)-1,1′-biphenyl-4-yl]methyl]-N-(2,4,6-trimethylphenyl)urea] |
| 5.49 | CCCCCCCN(Cc1ccc(-c2ccccc2-c2nnn[nH]2)cc1)C(=O)Nc1ccc(F)cc1F [Compound of the formula (8), N-(2,4-Difluorophenyl)-N′-heptyl-N′-[[2′-(1H-tetrazol-5-yl)-1,1′-biphenyl-4-yl]methyl]urea] |
| 5.39 | CCCCCN(CC(=O)Nc1c(C(C)C)cccc1C(C)C)Cc1ccc(-c2ccccc2-c2nnn[nH]2)cc1 [Compound of the formula (13), N-[[[(2,6-Diisopropylphenyl)amino]carbonyl]methyl]-N-pentyl-N-[[2′-(1H-tetrazol-5-yl)-1,1′-biphenyl-4-yl]methyl]amine] |
| 5.23 | CCCCCN(CC(=O)Nc1c(C)cc(C)cc1C)Cc1ccc(-c2ccccc2-c2nnn[nH]2)cc1 [Compound of the formula (14), N-Pentyl-N-[[2′-(1H-tetrazol-5-yl)-1,1′-biphenyl-4-yl]methyl]-N-[[[(2,4,6-trimethylphenyl)amino]-carbonyl]methyl]amine] |
| 5.21 | CCCCCN(CC(=O)Nc1c(F)cc(F)cc1F)Cc1ccc(-c2ccccc2-c2nnn[nH]2)cc1 [Compound of the formula (15), N-Pentyl-N-[[2′-(1H-tetrazol-5-yl)-1,1′-biphenyl-4-yl]methyl]-N-[[[(2,4,6-trifluorophenyl)amino]-carbonyl]methyl]amine] |
